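All cell lines were grown in 96-well plates and treated with compound for 48 hours. GI50: concentration for 50% inhibition of growth.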 Calls of active or inactive are those of the source. Cut-off read from the data, not from the text of the source: active = GI50 up to about 1.1 µM and inactive = higher.
Key:
Experiment in all cases: NCI tumour cell line growth inhibition, 48 h
[1] = system: 786-0
[2] = system: ACHN
[3] = system: CCRF-CEM
[4] = system: COLO 205
[5] = system: EKVX
[6] = system: HCC 2998
[7] = system: HL-60
[8] = system: HOP-62
[9] = system: HT-29
[10] = system: MDA-MB-435
[11] = system: NCI/ADR-RES
[12] = system: OVCAR-5
[13] = system: OVCAR-8
[14] = system: SF-295
[15] = system: SK-MEL-2
[16] = system: SN12C
[17] = system: SNB-19
[18] = system: SF-539
[19] = system: SR

COc1cc(N(CCC#N)CCC#N)ccc1C(/N=N/c1cccc(C)c1)=N\NC(=O)c1ccc(C)cc1
GI50 [1]: > 100 µM (inactive)
GI50 [2]: 21.8 µM (inactive)
GI50 [3]: 97.3 µM (inactive)
GI50 [4]: 60 µM (inactive)
GI50 [5]: 87.7 µM (inactive)
GI50 [6]: 79.3 µM (inactive)
GI50 [7]: 47.3 µM (inactive)
GI50 [8]: > 100 µM (inactive)
GI50 [9]: > 100 µM (inactive)
GI50 [10]: > 100 µM (inactive)
GI50 [11]: > 100 µM (inactive)
GI50 [12]: > 100 µM (inactive)
GI50 [13]: > 100 µM (inactive)
GI50 [14]: > 100 µM (inactive)
GI50 [15]: > 100 µM (inactive)
GI50 [16]: > 100 µM (inactive)
GI50 [17]: > 100 µM (inactive)

CC(C)(C)c1cc(C2=NNC(c3ccccc3)C2)cc(C(C)(C)C)c1O (centres undefined)
GI50 [1]: 14.3 µM (inactive)
GI50 [2]: 16.3 µM (inactive)
GI50 [4]: 17.5 µM (inactive)
GI50 [5]: 16.1 µM (inactive)
GI50 [8]: 17.1 µM (inactive)
GI50 [9]: 17.7 µM (inactive)
GI50 [10]: 12.8 µM (inactive)
GI50 [11]: 17 µM (inactive)
GI50 [12]: 21.1 µM (inactive)
GI50 [13]: 16.7 µM (inactive)
GI50 [14]: 16.5 µM (inactive)
GI50 [18]: 19.8 µM (inactive)
GI50 [15]: 14.8 µM (inactive)
GI50 [16]: 16.6 µM (inactive)
GI50 [17]: 18 µM (inactive)
GI50 [19]: 5.58 µM (inactive)

O=C(NCCNCCCNC(=O)c1cc(-c2ccccc2)nc2ccccc12)c1cccc(O)c1O
GI50 [1]: 2.62 µM (inactive)
GI50 [2]: 2.43 µM (inactive)
GI50 [3]: 0.697 µM (active)
GI50 [4]: 3.18 µM (inactive)
GI50 [5]: 24.4 µM (inactive)
GI50 [6]: 3.73 µM (inactive)
GI50 [7]: 3.21 µM (inactive)
GI50 [8]: 1.05 µM (active)
GI50 [9]: 4.88 µM (inactive)
GI50 [10]: 2.51 µM (inactive)
GI50 [11]: 22.4 µM (inactive)
GI50 [12]: 2.28 µM (inactive)
GI50 [13]: 2.38 µM (inactive)
GI50 [14]: 1.84 µM (inactive)
GI50 [18]: 2.48 µM (inactive)
GI50 [15]: 2.8 µM (inactive)
GI50 [16]: 1.95 µM (inactive)
GI50 [17]: 2.1 µM (inactive)

C/C(=N/NC(=S)Nc1ccc(C)cc1)c1ccccn1
GI50 [1]: 0.0427 µM (active)
GI50 [2]: 0.0515 µM (active)
GI50 [3]: < 0.0124 µM (active)
GI50 [4]: < 0.0166 µM (active)
GI50 [5]: 0.0601 µM (active)
GI50 [6]: 3.48 µM (inactive)
GI50 [7]: < 0.0132 µM (active)
GI50 [8]: 0.029 µM (active)
GI50 [9]: < 0.0366 µM (active)
GI50 [10]: 1.07 µM (active)
GI50 [11]: < 0.0152 µM (active)
GI50 [12]: 0.0493 µM (active)
GI50 [13]: 0.0258 µM (active)
GI50 [14]: 0.193 µM (active)
GI50 [18]: 0.815 µM (active)
GI50 [15]: 1.41 µM (inactive)
GI50 [16]: 0.192 µM (active)
GI50 [17]: 2.29 µM (inactive)

CC(C)C1CC(CO)(CNc2nc(N)nc(Cl)c2C=O)C1 (centres undefined)
GI50 [1]: 31.3 µM (inactive)
GI50 [2]: 5.35 µM (inactive)
GI50 [3]: 2.34 µM (inactive)
GI50 [4]: 12.3 µM (inactive)
GI50 [5]: 4.51 µM (inactive)
GI50 [6]: 1.97 µM (inactive)
GI50 [7]: 1.57 µM (inactive)
GI50 [8]: 18.8 µM (inactive)
GI50 [9]: 2.48 µM (inactive)
GI50 [10]: 2.23 µM (inactive)
GI50 [11]: 6.03 µM (inactive)
GI50 [12]: 17.1 µM (inactive)
GI50 [13]: 2.75 µM (inactive)
GI50 [14]: 16.6 µM (inactive)
GI50 [18]: 13.7 µM (inactive)
GI50 [15]: 1.8 µM (inactive)
GI50 [16]: 3.75 µM (inactive)
GI50 [17]: 6.04 µM (inactive)

Cc1nnc(N2C(=O)C(=Cc3ccc(Cl)cc3)N=C2c2ccc(Cl)cc2)nc1/C=C\c1ccc(N(C)C)cc1
GI50 [1]: > 100 µM (inactive)
GI50 [2]: > 100 µM (inactive)
GI50 [3]: > 100 µM (inactive)
GI50 [4]: > 100 µM (inactive)
GI50 [5]: > 100 µM (inactive)
GI50 [6]: > 100 µM (inactive)
GI50 [7]: 93.8 µM (inactive)
GI50 [8]: > 100 µM (inactive)
GI50 [9]: > 100 µM (inactive)
GI50 [10]: > 100 µM (inactive)
GI50 [11]: > 100 µM (inactive)
GI50 [12]: > 100 µM (inactive)
GI50 [13]: > 100 µM (inactive)
GI50 [14]: > 100 µM (inactive)
GI50 [15]: > 100 µM (inactive)
GI50 [16]: > 100 µM (inactive)
GI50 [17]: > 100 µM (inactive)

Nc1c(C(=O)c2ccc(Cl)cc2)[nH]c(NCc2ccccc2)c1C(=S)Nc1ccccc1
GI50 [1]: 1.72 µM (inactive)
GI50 [2]: 2.28 µM (inactive)
GI50 [3]: 2.44 µM (inactive)
GI50 [4]: 11.5 µM (inactive)
GI50 [5]: 7.21 µM (inactive)
GI50 [6]: 0.372 µM (active)
GI50 [7]: 3.93 µM (inactive)
GI50 [8]: 3.67 µM (inactive)
GI50 [9]: 1.94 µM (inactive)
GI50 [10]: 1.74 µM (inactive)
GI50 [11]: 7.83 µM (inactive)
GI50 [12]: 3 µM (inactive)
GI50 [13]: 1.77 µM (inactive)
GI50 [14]: 1.83 µM (inactive)
GI50 [18]: 4.62 µM (inactive)
GI50 [15]: 1.91 µM (inactive)
GI50 [16]: 4.89 µM (inactive)
GI50 [17]: 4.07 µM (inactive)

CCCCCC(=O)OCCOCCOCCOCCOCCOCc1ccccc1
GI50 [1]: > 100 µM (inactive)
GI50 [2]: > 100 µM (inactive)
GI50 [4]: > 100 µM (inactive)
GI50 [5]: > 100 µM (inactive)
GI50 [8]: > 100 µM (inactive)
GI50 [12]: > 100 µM (inactive)
GI50 [13]: > 100 µM (inactive)
GI50 [14]: > 100 µM (inactive)
GI50 [18]: > 100 µM (inactive)
GI50 [15]: > 100 µM (inactive)
GI50 [16]: > 100 µM (inactive)
GI50 [17]: > 100 µM (inactive)
